From publication PMC9454393 (Scientific Reports, 2022) come the findings set out here.

In one assay the target is BChE (Homo sapiens, UniProt P06276). Nature of the assay: BChE inhibition, modified Ellman's spectrophotometric assay. It is filed as biochemical. Particulars: mean ± SD; for inhibition at 50 µM: 50 µM compound, NA = not active. As for the experimental part: (§1) A previously described modified protocol of Ellman's spectrophotometric assay in clear flat-bottomed, 96-well plates, was used. […] The absorbance of each well was measured at 415 nm using a microplate reader. […]
A general note: Ellman's reagent forms a yellow product with free thiols.

For a further assay, the target named is AChE (Homo sapiens, UniProt P22303). Nature of the assay: biochemical. Particulars: mean ± SD; for inhibition at 50 µM: 50 µM compound, NA = not active. As for the experimental part: as §1
Chain of AChE (P22303 32-614): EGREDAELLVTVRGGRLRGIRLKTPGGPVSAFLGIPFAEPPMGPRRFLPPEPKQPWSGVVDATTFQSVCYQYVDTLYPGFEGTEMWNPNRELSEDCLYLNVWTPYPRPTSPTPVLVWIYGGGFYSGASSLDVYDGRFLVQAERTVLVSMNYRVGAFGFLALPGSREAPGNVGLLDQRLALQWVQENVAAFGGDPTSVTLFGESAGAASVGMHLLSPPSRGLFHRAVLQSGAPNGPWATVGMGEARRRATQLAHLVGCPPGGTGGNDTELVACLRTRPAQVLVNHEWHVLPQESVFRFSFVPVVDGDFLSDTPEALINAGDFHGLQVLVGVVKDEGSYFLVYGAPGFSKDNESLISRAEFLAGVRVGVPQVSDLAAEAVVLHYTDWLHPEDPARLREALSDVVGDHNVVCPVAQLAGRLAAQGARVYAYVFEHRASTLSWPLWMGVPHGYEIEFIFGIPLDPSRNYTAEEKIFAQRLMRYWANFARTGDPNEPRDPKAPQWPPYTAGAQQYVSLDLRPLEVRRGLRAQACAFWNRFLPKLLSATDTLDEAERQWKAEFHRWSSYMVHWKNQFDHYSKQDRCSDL

Chain of BChE (P06276 29-602): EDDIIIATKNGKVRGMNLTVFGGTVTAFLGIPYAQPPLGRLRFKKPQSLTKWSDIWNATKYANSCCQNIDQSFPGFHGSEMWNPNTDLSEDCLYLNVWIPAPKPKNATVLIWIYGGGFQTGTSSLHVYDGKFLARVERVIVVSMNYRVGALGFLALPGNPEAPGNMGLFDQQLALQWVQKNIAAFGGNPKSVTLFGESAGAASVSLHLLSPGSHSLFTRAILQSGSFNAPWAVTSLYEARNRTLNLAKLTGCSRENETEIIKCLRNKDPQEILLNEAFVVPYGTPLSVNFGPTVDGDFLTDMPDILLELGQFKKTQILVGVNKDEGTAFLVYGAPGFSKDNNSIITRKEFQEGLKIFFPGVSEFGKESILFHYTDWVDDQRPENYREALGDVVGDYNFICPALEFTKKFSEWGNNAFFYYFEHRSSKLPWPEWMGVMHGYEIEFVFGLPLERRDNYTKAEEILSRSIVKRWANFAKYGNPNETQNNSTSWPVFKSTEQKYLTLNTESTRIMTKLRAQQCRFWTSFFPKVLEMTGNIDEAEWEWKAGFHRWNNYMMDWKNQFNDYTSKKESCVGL

Regarding `Cc1ccc(-c2c(C(C#N)C(N)=O)c([N+](=O)[O-])c3n2CCCN3)cc1` (stereo not shown) [Compound 4a, 2-cyano-2-(8-nitro-6-(p-tolyl)-1,2,3,4-tetrahydropyrrolo[1,2-a]pyrimidin-7-yl)acetamide], the inhibition at 50 µM was found to be 26.1 ± 4.09% against BChE and 14.7 ± 2.26% at AChE.
At BChE, `COc1ccc(-n2c(SC)c([N+](=O)[O-])c(C(C#N)C(N)=O)c2-c2ccc(Cl)cc2)cc1` (stereo not shown) [Compound 4aa, 2-(2-(4-chlorophenyl)-1-(4-methoxyphenyl)-5-(methylthio)-4-nitro-1H-pyrrol-3-yl)-2-cyanoacetamide] returned an inhibition at 50 µM of 22.3 ± 3.91%. At AChE, this compound came in with an inhibition at 50 µM of 48.6 ± 2.77% and an IC50 of 54.6 ± 5.71 µM.
Regarding `CCOC(=O)C(C(N)=O)c1c([N+](=O)[O-])c(SC)n(-c2ccc(OC)cc2)c1-c1ccc(Cl)cc1` (stereo not shown) [Compound 4ac, Ethyl 3-amino-2-(2-(4-chlorophenyl)-1-(4-methoxyphenyl)-5-(methylthio)-4-nitro-1H-pyrrol-3-yl)-3-oxopropanoate], the inhibition at 50 µM against BChE came out at 33.8 ± 4.84%; against AChE, 11.8 ± 3.92%.
On BChE, `CSc1c([N+](=O)[O-])c(C(C#N)C(N)=O)c(-c2ccc(C)cc2)n1-c1ccc(O)cc1` (stereo not shown) [Compound 4ae, 2-cyano-2-(1-(4-hydroxyphenyl)-5-(methylthio)-4-nitro-2-(p-tolyl)-1H-pyrrol-3-yl)acetamide] yielded an inhibition at 50 µM of 17.1 ± 3.49%. At AChE, this compound yielded an inhibition at 50 µM of 52.4 ± 5.07% and an IC50 of 33.1 ± 3.11 µM.
As for `COC(=O)C(C(N)=O)c1c([N+](=O)[O-])c(SC)n(-c2ccc(C)cc2)c1-c1ccccc1` (stereo not shown) [Compound 4af, Methyl 3-amino-2-(5-(methylthio)-4-nitro-2-phenyl-1-(p-tolyl)-1H-pyrrol-3-yl)-3-oxopropanoate], the inhibition at 50 µM against AChE was determined as 24 ± 4.6%.
Same read-out and setting: as for `CSc1c([N+](=O)[O-])c(C(C#N)C(N)=O)c(-c2ccc(C)cc2)n1-c1ccc(C)cc1` (stereo not shown) [Compound 4ag, 2-cyano-2-(5-(methylthio)-4-nitro-1,2-di-p-tolyl-1H-pyrrol-3-yl)acetamide], the figure is 33.3 ± 2.31%.
With `CSc1c([N+](=O)[O-])c(C(C#N)C(N)=O)c(-c2ccc(Cl)cc2)n1-c1ccc(C)cc1` (stereo not shown) [Compound 4ah, 2-(2-(4-chlorophenyl)-5-(methylthio)-4-nitro-1-(p-tolyl)-1H-pyrrol-3-yl)-2-cyanoacetamide], on AChE, the inhibition at 50 µM amounted to 72.5 ± 3.05% and the IC50 is 4.78 ± 1.63 µM.
`CCOC(=O)C(C(N)=O)c1c([N+](=O)[O-])c(SC)n(-c2ccc(C)cc2)c1-c1ccccc1` (stereo not shown) [Compound 4ai, Ethyl3-amino-2-(5-(methylthio)-4-nitro-2-phenyl-1-(p-tolyl)-1H-pyrrol-3-yl)-3-oxopropanoate]: at AChE, the inhibition at 50 µM was 24.2 ± 2.23%.
`COC(=O)C(C(N)=O)c1c([N+](=O)[O-])c(SC)n(-c2ccc(C)c(C)c2)c1-c1ccccc1` (stereo not shown) [Compound 4aj, Methyl3-amino-2-(1-(3,4-dimethylphenyl)-5-(methylthio)-4-nitro-2-phenyl-1H-pyrrol-3-yl)-3-oxopropanoate] showed an inhibition at 50 µM on AChE of 38.9 ± 5.99%.
For the compound `CC1(C)CNc2c([N+](=O)[O-])c(C(C#N)C(N)=O)c(-c3ccccc3)n2C1` (stereo not shown) [Compound 4b, 2-cyano-2-(3,3-dimethyl-8-nitro-6-phenyl-1,2,3,4-tetrahydropyrrolo[1,2-a]pyrimidin-7-yl)acetamide], at AChE, the inhibition at 50 µM was 52 ± 4.43% and 37.1 ± 3.52 µM corresponded to half-maximal inhibition (IC50).
Regarding `N#CC(C(N)=O)c1c([N+](=O)[O-])c2n(c1-c1ccccc1)CCCN2` (stereo not shown) [Compound 4c, 2-cyano-2-(8-nitro-6-phenyl-1,2,3,4-tetrahydropyrrolo[1,2-a]pyrimidin-7-yl)acetamide], the inhibition at 50 µM on AChE is 39.8 ± 3.69%.
Consider `CCOC(=O)C(C(N)=O)c1c([N+](=O)[O-])c2n(c1-c1ccccc1)CC(C)(C)CN2` (stereo not shown) [Compound 4d, Ethyl3-amino-2-(3,3-dimethyl-8-nitro-6-phenyl-1,2,3,4-tetrahydropyrrolo[1,2-a]pyrimidin-7-yl)-3-oxopropanoate], for which the figures for the inhibition at 50 µM against BChE and on AChE were 13.5 ± 2.96% and 13.5 ± 1.58%, respectively.
For the compound `CC1(C)CNc2c([N+](=O)[O-])c(C(C#N)C(N)=O)c(-c3ccc(Cl)cc3)n2C1` (stereo not shown) [Compound 4e, 2-(6-(4-chlorophenyl)-3,3-dimethyl-8-nitro-1,2,3,4-tetrahydropyrrolo[1,2-a]pyrimidin-7-yl)-2-cyanoacetamide], the inhibition at 50 µM came out at 18.1 ± 2.89% on BChE and 57 ± 5.46% against AChE. In addition, the IC50 at AChE was 36.3 ± 4.85 µM.
With `COc1cccc(-c2c(C(C#N)C(N)=O)c([N+](=O)[O-])c3n2CCCN3)c1` (stereo not shown) [Compound 4f, 2-cyano-2-(6-(3-methoxyphenyl)-8-nitro-1,2,3,4-tetrahydropyrrolo[1,2-a]pyrimidin-7-yl)acetamide], the results for the inhibition at 50 µM against BChE and at AChE were 17.8 ± 2.79% and 33.5 ± 5.19%, respectively.
At AChE, `CCOC(=O)C(C(N)=O)c1c([N+](=O)[O-])c2n(c1-c1ccccc1)CCCN2` (stereo not shown) [Compound 4g, Ethyl 3-amino-2-(8-nitro-6-phenyl-1,2,3,4-tetrahydropyrrolo[1,2-a]pyrimidin-7-yl)-3-oxopropanoate] showed an inhibition at 50 µM of 30.8 ± 5.17%.
`Cc1ccc(-c2c(C(C#N)C(N)=O)c([N+](=O)[O-])c3n2CC(C)(C)CN3)cc1` (stereo not shown) [Compound 4h, 2-cyano-2-(3,3-dimethyl-8-nitro-6-(p-tolyl)-1,2,3,4-tetrahydropyrrolo[1,2-a]pyrimidin-7-yl)acetamide]: on AChE, the inhibition at 50 µM was determined as 45.8 ± 2.81% and 67.6 ± 7.54 µM corresponded to half-maximal inhibition (IC50).
Turning to `N#CC(C(N)=O)c1c([N+](=O)[O-])c2n(c1-c1ccc(Cl)cc1)CCCN2` (stereo not shown) [Compound 4i, 2-(6-(4-chlorophenyl)-8-nitro-1,2,3,4-tetrahydropyrrolo[1,2-a]pyrimidin-7-yl)-2-cyanoacetamide], the inhibition at 50 µM against AChE stood at 33.9 ± 6.87%.
Take `COC(=O)C(C(N)=O)c1c([N+](=O)[O-])c2n(c1-c1ccc(C)cc1)CC(C)(C)CN2` (stereo not shown) [Compound 4j, Methyl3-amino-2-(3,3-dimethyl-8-nitro-6-(p-tolyl)-1,2,3,4-tetrahydropyrrolo[1,2-a]pyrimidin-7-yl)-3-oxopropanoate]: the inhibition at 50 µM against BChE stood at 28.2 ± 3.83%; on AChE, 14.9 ± 2.45%.
For `COC(=O)C(C(N)=O)c1c([N+](=O)[O-])c2n(c1-c1ccc(Cl)cc1)CC(C)(C)CN2` (stereo not shown) [Compound 4k, Methyl3-amino-2-(6-(4-chlorophenyl)-3,3-dimethyl-8-nitro-1,2,3,4-tetrahydropyrrolo[1,2-a]pyrimidin-7-yl)-3-oxopropanoate], the inhibition at 50 µM at BChE stood at 13.7 ± 2.13%; at AChE, 13.3 ± 4.88%.
In turn, `CCOC(=O)C(C(N)=O)c1c([N+](=O)[O-])c2n(c1-c1ccc(C)cc1)CC(C)(C)CN2` (stereo not shown) [Compound 4l, Ethyl3-amino-2-(3,3-dimethyl-8-nitro-6-(p-tolyl)-1,2,3,4-tetrahydropyrrolo[1,2-a]pyrimidin-7-yl)-3-oxopropanoate] showed an inhibition at 50 µM on AChE of 14.2 ± 2.12%.
For `CCOC(=O)C(C(N)=O)c1c([N+](=O)[O-])c(NCc2ccco2)n(Cc2ccco2)c1-c1ccc(Cl)cc1` (stereo not shown) [Compound 4n, Ethyl3-amino-2-(2-(4-chlorophenyl)-1-(furan-2-ylmethyl)-5-((furan-2-ylmethyl)amino)-4-nitro-1H-pyrrol-3-yl)-3-oxopropanoate], at BChE, 50 µM produced 21.9 ± 1.18% inhibition.
As for `Cc1ccc(-c2c(C(C#N)C(N)=O)c([N+](=O)[O-])c(NCc3ccco3)n2Cc2ccco2)cc1` (stereo not shown) [Compound 4o, 2-cyano-2-(1-(furan-2-ylmethyl)-5-((furan-2-ylmethyl)amino)-4-nitro-2-(p-tolyl)-1H-pyrrol-3-yl)acetamide], on BChE, the inhibition at 50 µM was found to be 46.1 ± 6.43% and the midpoint of inhibition, the IC50, lay at 69.2 ± 5.09 µM. The compound also had an inhibition at 50 µM against AChE of 19.8 ± 4.18%.
On AChE, `N#CC(C(N)=O)c1c([N+](=O)[O-])c(NCc2ccccc2)n(Cc2ccccc2)c1-c1ccc(Cl)cc1` (stereo not shown) [Compound 4p, 2-(1-benzyl-5-(benzylamino)-2-(4-chlorophenyl)-4-nitro-1H-pyrrol-3-yl)-2-cyanoacetamide] showed an inhibition at 50 µM of 18.7 ± 3.52%.
For `CCOC(=O)C(C(N)=O)c1c([N+](=O)[O-])c(NCc2ccco2)n(Cc2ccco2)c1-c1ccc(C)cc1` (stereo not shown) [Compound 4q, Ethyl3-amino-2-(1-(furan-2-ylmethyl)-5-((furan-2-ylmethyl)amino)-4-nitro-2-(p-tolyl)-1H-pyrrol-3-yl)-3-oxopropanoate], the results for the inhibition at 50 µM on BChE and against AChE were 68.4 ± 6.35% and 17.8 ± 2.44%, respectively. For the same compound, the IC50 at BChE came to 18.6 ± 2.71 µM.
Compound `N#CC(C(N)=O)c1c([N+](=O)[O-])c(NCc2ccco2)n(Cc2ccco2)c1-c1ccc(Cl)cc1` (stereo not shown) [Compound 4s, 2-(2-(4-chlorophenyl)-1-(furan-2-ylmethyl)-5-((furan-2-ylmethyl)amino)-4-nitro-1H-pyrrol-3-yl)-2-cyanoacetamide] gave an inhibition at 50 µM against BChE of 29.5 ± 3.87%.
Same read-out and setting: as for `CCOC(=O)C(C(N)=O)c1c([N+](=O)[O-])c(NCc2ccccc2)n(Cc2ccccc2)c1-c1ccc(C)cc1` (stereo not shown) [Compound 4t, Ethyl 3-amino-2-(1-benzyl-5-(benzylamino)-4-nitro-2-(p-tolyl)-1H-pyrrol-3-yl)-3-oxopropanoate], the figure is 26.5 ± 5.12%.
For the compound `N#CC(C(N)=O)c1c(-c2ccc(Cl)cc2)[nH]c(N)c1[N+](=O)[O-]` (stereo not shown) [Compound 4w, 2-(5-amino-2-(4-chlorophenyl)-4-nitro-1H-pyrrol-3-yl)-2-cyanoacetamide], the inhibition at 50 µM against BChE came to 33.5 ± 3.4%; against AChE, 48.6 ± 4.53%.
In the case of `N#CC(C(N)=O)c1c(-c2ccc3ccccc3c2)[nH]c(N)c1[N+](=O)[O-]` (stereo not shown) [Compound 4y, 2-(5-amino-2-(naphthalen-2-yl)-4-nitro-1H-pyrrol-3-yl)-2-cyanoacetamide], the inhibition at 50 µM at BChE came out at 19.1 ± 4.3%.
`CSc1c([N+](=O)[O-])c(C(C#N)C(N)=O)c(-c2ccc(C)cc2)n1-c1ccc(C)c(C)c1` (stereo not shown) [Compound 4z, 2-cyano-2-(1-(3,4-dimethylphenyl)-5-(methylthio)-4-nitro-2-(p-tolyl)-1H-pyrrol-3-yl)acetamide] came in with an inhibition at 50 µM at AChE of 26.7 ± 5.14%.

In general, inhibition refers to the percentage by which the read-out fell short of the control. By IC50 is commonly meant the point on the concentration scale where inhibition reaches its midpoint. Low readings indicate higher potency, high ones lower potency.
